Reference: patent US9609868B2, “Alkoximino-substituted anthranilic acid diamides as pesticides” (BAYER CROPSCIENCE AKTIENGESELLSCHAFT, priority 2013, dated 2017)

Key:
Phaedon cochleariae = Phaedon cochleariae - spray test (PHAECO); assay type: in vivo; conditions: application rate 100 g/ha, Chinese cabbage leaf disks
Procedure: Phaedon cochleariae—Spray Test (PHAECO)
(§1) Solvent: 78.0 parts by weight of acetone • • 1.5 parts by weight of dimethylformamide
(§2) Emulsifier: 0.5 parts by weight of alkylaryl polyglycol ether
(§3) To produce a suitable active compound preparation, 1 part by weight of active compound is mixed with the stated amounts of solvent and emulsifier, and the concentrate is diluted with emulsifier-containing water to the desired concentration.
After the desired period of time, the efficacy in % is determined. 100% means that all the beetle larvae have been killed; 0% means that no beetle larvae have been killed.

Myzus persicae = Myzus persicae - spray test (MYZUPE); assay type: in vivo; conditions: Chinese cabbage leaf disks
Procedure: Myzus persicae—Spray Test (MYZUPE)
Solvent: 78 parts by weight of acetone • • 1.5 parts by weight of dimethylformamide
as §2, §3
Disks of Chinese cabbage leaves (Brassica pekinensis) infested by all stages of the green peach aphid (Myzus persicae) are sprayed with an active compound preparation of the desired concentration.
After the desired period of time, the efficacy in % is determined. 100% means that all the aphids have been killed; 0% means that none of the aphids have been killed.

[1] = log P by HPLC on reversed-phase column (C18), EEC directive 79/831 Annex V.A8; assay type: physicochemical; conditions: HPLC reversed-phase C18, 43° C., data refer to the E isomer
Procedure: The log P values reported in the tables and Preparation Examples above were determined in accordance with EEC directive 79/831 Annex V.A8 by HPLC (High Performance Liquid Chromatography) using a reversed-phase column (C18). Temperature 43° C. The calibration is effected with unbranched alkan-2-ones (having 3 to 16 carbon atoms), for which the log P values are known.

Spodoptera frugiperda = Spodoptera frugiperda - spray test (SPODFR); assay type: in vivo; conditions: application rate 100 g/ha, maize leaf disks
Procedure: Spodoptera frugiperda—Spray Test (SPODFR)
as §1, §2, §3
Leaf disks of maize (Zea mays) are sprayed with an active compound preparation of the desired concentration and, after drying, populated with caterpillars of the armyworm (Spodoptera frugiperda).
After the desired period of time, the efficacy in % is determined. 100% means that all the caterpillars have been killed; 0% means that no caterpillars have been killed.

C#CCNC(=O)c1cc(C=NOC)cc(C)c1NC(=O)c1cc(OC)nn1-c1ncccc1Cl [C-48]
efficacy (beetle larvae killed) (Phaedon cochleariae): 100%
efficacy (aphids killed) (Myzus persicae; application rate 100 g/ha): 100%
log p ([1]; Table C): 2.40
efficacy (caterpillars killed) (Spodoptera frugiperda): 100%

CON=Cc1cc(C)c(NC(=O)c2cc(OC)nn2-c2ncccc2Cl)c(C(=O)NC2CC2)c1 [C-23]
efficacy (beetle larvae killed) (Phaedon cochleariae): 100%
efficacy (aphids killed) (Myzus persicae; application rate 100 g/ha): 100%
log p ([1]; Table C): 2.40
efficacy (caterpillars killed) (Spodoptera frugiperda): 100%

CON=Cc1cc(C)c(NC(=O)c2cc(C(F)(F)F)nn2-c2ncccc2Cl)c(C(=O)NNS(C)(=O)=O)c1 [A-23]
efficacy (beetle larvae killed) (Phaedon cochleariae): 100%
efficacy (aphids killed) (Myzus persicae; application rate 100 g/ha): 100%
log p ([1]; Table A): 2.63
efficacy (caterpillars killed) (Spodoptera frugiperda): 100%

CCNC(=O)c1cc(C=NOC)cc(C)c1NC(=O)c1cc(OC)nn1-c1ncccc1Cl [C-47]
efficacy (beetle larvae killed) (Phaedon cochleariae): 100%
efficacy (aphids killed) (Myzus persicae; application rate 100 g/ha): 100%
log p ([1]; Table C): 2.41
efficacy (caterpillars killed) (Spodoptera frugiperda): 100%

CCOc1cc(C(=O)Nc2c(C)cc(C=NOC)cc2C(=O)NC)n(-c2ncccc2Cl)n1 [C-10]
efficacy (beetle larvae killed) (Phaedon cochleariae): 100%
efficacy (aphids killed) (Myzus persicae; application rate 100 g/ha): 100%
log p ([1]; Table C): 2.48
efficacy (caterpillars killed) (Spodoptera frugiperda): 100%

COCC(C)NC(=O)c1cc(C=NOC)cc(C)c1NC(=O)c1cc(C(F)F)nn1-c1ncccc1Cl (centres unmarked) [C-60]
efficacy (beetle larvae killed) (Phaedon cochleariae): 100%
efficacy (aphids killed) (Myzus persicae; application rate 100 g/ha): 100%
log p ([1]; Table C): 2.84
efficacy (caterpillars killed) (Spodoptera frugiperda): 100%

CCOc1cc(C(=O)Nc2c(C)cc(C=NOC)cc2C(=O)NNC(=O)OC)n(-c2ncccc2Cl)n1 (mixture of isomers) [A-34]
efficacy (beetle larvae killed) (Phaedon cochleariae): 100%
efficacy (aphids killed) (Myzus persicae; application rate 100 g/ha): 90%
log p ([1]; Table A): 2.26
efficacy (caterpillars killed) (Spodoptera frugiperda): 100%

CON=Cc1cc(C)c(NC(=O)c2cc(OC)nn2-c2ncccc2Cl)c(C(=O)NC(C)C2CC2)c1 (centres unmarked) [C-25]
efficacy (beetle larvae killed) (Phaedon cochleariae): 100%
efficacy (aphids killed) (Myzus persicae; application rate 100 g/ha): 100%
log p ([1]; Table C): 3.02
efficacy (caterpillars killed) (Spodoptera frugiperda): 100%

CON=Cc1cc(C)c(NC(=O)c2cc(Br)nn2-c2ncccc2Cl)c(C(=O)NN(C)C(=O)OC)c1 (mixture of isomers) [A-45]
efficacy (beetle larvae killed) (Phaedon cochleariae): 100%
efficacy (aphids killed) (Myzus persicae; application rate 100 g/ha): 100%
log p ([1]; Table A): 2.50
efficacy (caterpillars killed) (Spodoptera frugiperda): 100%

CON=Cc1cc(C)c(NC(=O)c2cc(CF)nn2-c2ncccc2Cl)c(C(=O)NNC(=O)OC)c1 (mixture of isomers) [A-44]
efficacy (beetle larvae killed) (Phaedon cochleariae): 100%
efficacy (aphids killed) (Myzus persicae; application rate 100 g/ha): 90%
log p ([1]; Table A): 2.02
efficacy (caterpillars killed) (Spodoptera frugiperda): 100%

CON=Cc1cc(C)c(NC(=O)c2cc(CF)nn2-c2ncccc2Cl)c(C(=O)NC(C)C)c1 [C-49]
efficacy (beetle larvae killed) (Phaedon cochleariae): 100%
efficacy (aphids killed) (Myzus persicae; application rate 100 g/ha): 90%
log p ([1]; Table C): 2.65
efficacy (caterpillars killed) (Spodoptera frugiperda): 100%

CON=Cc1cc(C)c(NC(=O)c2cc(OC)nn2-c2ncccc2Cl)c(C(=O)NC(C)C2CC2)c1 (mixture of isomers) [C-31]
efficacy (beetle larvae killed) (Phaedon cochleariae): 100%
log p ([1]; Table C): 3.66
efficacy (caterpillars killed) (Spodoptera frugiperda): 100%

COCCOC(=O)NNC(=O)c1cc(C=NOC)cc(C)c1NC(=O)c1cc(C(F)(F)F)nn1-c1ncccc1Cl [A-20]
efficacy (beetle larvae killed) (Phaedon cochleariae): 100%
efficacy (aphids killed) (Myzus persicae; application rate 100 g/ha): 90%
log p ([1]; Table A): 2.74
efficacy (caterpillars killed) (Spodoptera frugiperda): 100%

CON=Cc1cc(C)c(NC(=O)c2cc(OC(C)C)nn2-c2ncccc2Cl)c(C(=O)NC2CC2)c1 [C-06]
efficacy (beetle larvae killed) (Phaedon cochleariae): 100%
log p ([1]; Table C): 2.98
efficacy (caterpillars killed) (Spodoptera frugiperda): 100%

CON=Cc1cc(C)c(NC(=O)c2cc(CF)nn2-c2ncccc2Cl)c(C(=O)NC2COC2)c1 (mixture of isomers) [B-12]
efficacy (beetle larvae killed) (Phaedon cochleariae): 100%
log p ([1]; Table B): 2.04

C=CCOC(=O)NNC(=O)c1cc(C=NOC)cc(C)c1NC(=O)c1cc(C(F)(F)F)nn1-c1ncccc1Cl [A-21]
efficacy (beetle larvae killed) (Phaedon cochleariae): 100%
efficacy (aphids killed) (Myzus persicae; application rate 100 g/ha): 90%
log p ([1]; Table A): 3.04
efficacy (caterpillars killed) (Spodoptera frugiperda): 100%

CON=Cc1cc(C)c(NC(=O)c2cc(C(F)(F)F)nn2-c2ncccc2Cl)c(C(=O)NNC(=O)OC(C)C)c1 [A-18]
efficacy (beetle larvae killed) (Phaedon cochleariae): 100%
log p ([1]; Table A): 3.17
efficacy (caterpillars killed) (Spodoptera frugiperda): 100%

CON=Cc1cc(C)c(NC(=O)c2cc(OC(C)C)nn2-c2ncccc2Cl)c(C(=O)NC(C)(C)C)c1 [C-09]
efficacy (beetle larvae killed) (Phaedon cochleariae): 100%
efficacy (aphids killed) (Myzus persicae; application rate 100 g/ha): 100%
log p ([1]; Table C): 3.74
efficacy (caterpillars killed) (Spodoptera frugiperda): 100%

CON=Cc1cc(C)c(NC(=O)c2cc(OC(F)F)nn2-c2ncccc2Cl)c(C(=O)NN(C)C(=O)OC)c1 (mixture of isomers) [A-49]
efficacy (beetle larvae killed) (Phaedon cochleariae): 100%
efficacy (aphids killed) (Myzus persicae; application rate 100 g/ha): 90%
log p ([1]; Table A): 2.60
efficacy (caterpillars killed) (Spodoptera frugiperda): 100%

CON=Cc1cc(C)c(NC(=O)c2cc(OC(C)C)nn2-c2ncccc2Cl)c(C(=O)NNC(=O)OC)c1 (mixture of isomers) [A-35]
efficacy (beetle larvae killed) (Phaedon cochleariae): 100%
efficacy (aphids killed) (Myzus persicae; application rate 100 g/ha): 90%
log p ([1]; Table A): 2.54
efficacy (caterpillars killed) (Spodoptera frugiperda): 100%

CON=Cc1cc(C)c(NC(=O)c2cc(C(F)(F)F)nn2-c2ncccc2Cl)c(C(=O)NNC(C)=O)c1 (mixture of isomers) [A-32]
efficacy (beetle larvae killed) (Phaedon cochleariae): 100%
efficacy (aphids killed) (Myzus persicae; application rate 100 g/ha): 90%
log p ([1]; Table A): 2.38
efficacy (caterpillars killed) (Spodoptera frugiperda): 100%

COCCNC(=O)c1cc(C=NOC)cc(C)c1NC(=O)c1cc(CF)nn1-c1ncccc1Cl [C-56]
efficacy (beetle larvae killed) (Phaedon cochleariae): 100%
efficacy (aphids killed) (Myzus persicae; application rate 20 g/ha): 90%
log p ([1]; Table C): 2.27
efficacy (caterpillars killed) (Spodoptera frugiperda): 100%

CON=Cc1cc(C)c(NC(=O)c2cc(OC)nn2-c2ncccc2Cl)c(C(=O)NC2CC2)c1 (mixture of isomers) [C-30]
efficacy (beetle larvae killed) (Phaedon cochleariae): 100%
log p ([1]; Table C): 2.97
efficacy (caterpillars killed) (Spodoptera frugiperda): 100%

CON=Cc1cc(C)c(NC(=O)c2cc(Br)nn2-c2ncccc2Cl)c(C(=O)N(C)NC(=O)OC)c1 [A-03]
efficacy (beetle larvae killed) (Phaedon cochleariae): 100%
log p ([1]; Table A): 2.74
efficacy (caterpillars killed) (Spodoptera frugiperda): 100%

CON=Cc1cc(C)c(NC(=O)c2cc(C(F)(F)F)nn2-c2ncccc2Cl)c(C(=O)N(C)NS(C)(=O)=O)c1 [A-31]
efficacy (beetle larvae killed) (Phaedon cochleariae): 100%
log p ([1]; Table A): 2.88
efficacy (caterpillars killed) (Spodoptera frugiperda): 100%

CON=Cc1cc(C)c(NC(=O)c2cc(OC)nn2-c2ncccc2Cl)c(C(=O)NNC(=O)OC)c1 (mixture of isomers) [A-38]
efficacy (beetle larvae killed) (Phaedon cochleariae): 100%
log p ([1]; Table A): 2.00
efficacy (caterpillars killed) (Spodoptera frugiperda): 100%

CON=Cc1cc(C)c(NC(=O)c2cc(Br)nn2-c2ncccc2Cl)c(C(=O)NNC(=O)OC(C)C)c1 [A-06]
efficacy (beetle larvae killed) (Phaedon cochleariae): 100%
log p ([1]; Table A): 2.88
efficacy (caterpillars killed) (Spodoptera frugiperda): 100%

CON=Cc1cc(C)c(NC(=O)c2cc(C(F)(F)F)nn2-c2ncccc2Cl)c(C(=O)N(C)NC(=O)OC(C)C)c1 [A-25]
efficacy (beetle larvae killed) (Phaedon cochleariae): 100%
log p ([1]; Table A): 3.57
efficacy (caterpillars killed) (Spodoptera frugiperda): 100%

CNC(=O)c1cc(C=NOC)cc(C)c1NC(=O)c1cc(OC(C)C)nn1-c1ncccc1Cl [C-65]
efficacy (beetle larvae killed) (Phaedon cochleariae): 100%
log p ([1]; Table C): 2.75
efficacy (caterpillars killed) (Spodoptera frugiperda): 100%

C#CCNC(=O)c1cc(C=NOC)cc(C)c1NC(=O)c1cc(OCC(F)F)nn1-c1ncccc1Cl [C-52]
efficacy (aphids killed) (Myzus persicae; application rate 100 g/ha): 90%
log p ([1]; Table C): 2.78
efficacy (caterpillars killed) (Spodoptera frugiperda): 100%
